{
  "source": "patent US10865191B2",
  "about": "“Heterocyclic compounds useful as modulators of TNF alpha” (BRISTOL-MYERS SQUIBB COMPANY, priority 2015, dated 2020)",
  "data": [
    {"molecular_target": "TNFα (Homo sapiens, UniProt P01375)", "sequence (P01375 77-233 limits assumed)": "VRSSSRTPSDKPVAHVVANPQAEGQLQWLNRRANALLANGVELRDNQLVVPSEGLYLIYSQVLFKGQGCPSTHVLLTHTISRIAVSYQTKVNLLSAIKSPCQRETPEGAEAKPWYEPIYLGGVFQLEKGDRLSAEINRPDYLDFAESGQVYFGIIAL", "experiment": "TNF induced HEK-Blue assay (NF-kB-driven secreted alkaline phosphatase reporter)", "format": "cell-based", "conditions": "TNF induced HEK-Blue assay IC50 value, TNFα 0.5 ng/mL, HEK-Blue-CD40L cells, 18 h", "in_short": "(§1)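 HEK-Blue-CD40L cells (NF-kB-driven SEAP reporter), 20,000/well, added after 30 min pre-incubation of compound (0.004–25 μM final) with TNFα 0.5 ng/mL final at 37 °C; 18 h incubation. SEAP read with QUANTI-Blue at 620 nm; IC50 from 4-parameter logistic fit, normalized to unstimulated and stimulated DMSO controls.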", "units": {"IC50": "nM"}, "values": [
      {"smiles": "C[C@@H](Nc1c(Cl)cnc2ccc(-c3cnc(N4CCN(CC(=O)O)CC4)nc3)cc12)c1ccccc1F", "note": "[Example 285, (R)-2-(4-(5-(3-chloro-4-((1-(2-fluorophenyl)ethyl)amino)quinolin-6-yl)pyrimidin-2-yl)piperazin-1-yl)acetic acid]", "IC50": "< 1000"},
      {"smiles": "CC(Nc1c(Cl)cnc2cc(F)c(-c3cnc(C(C)(C)O)nc3)cc12)c1ccccc1F", "note": "(centres unmarked) [Example 252, 2-(5-(3-chloro-7-fluoro-4-((1-(2-fluorophenyl)ethyl)amino)quinolin-6-yl)pyrimidin-2-yl)propan-2-ol]", "IC50": "< 1000"},
      {"smiles": "C[C@@H](Nc1c(Cl)cnc2ccc(-c3cnc(C(C)(C)O)nc3)cc12)c1ccccc1F", "note": "[Example 217, (R)-2-(5-(3-chloro-4-(1-(2-fluorophenyl)ethylamino)quinolin-6-yl)pyrimidin-2-yl)propan-2-ol]", "IC50": "< 1000"}
    ]},
    {"molecular_target": "TNFα (Homo sapiens, UniProt P01375)", "experiment": "TNF induced HEK-Blue assay (NF-kB-driven secreted alkaline phosphatase reporter)", "format": "cell-based", "conditions": "TNFα 0.5 ng/mL, HEK-Blue-CD40L cells, 18 h; read-out: TNF induced HEK-Blue assay IC50 value", "in_short": "as §1", "units": {"IC50": "nM"}, "values": [
      {"smiles": "Cc1ccc(C)c(NCc2nc3ccc(-c4cnn(C)c4)cc3c(Nc3cc(C)ccc3C)c2Cl)c1", "note": "[Example 2, 3-chloro-N-(2,5-dimethylphenyl)-2-(((2,5-dimethylphenyl)amino)methyl)-6-(1-methyl-1H-pyrazol-4-yl)quinolin-4-amine]", "IC50": "10000 to 25000"},
      {"smiles": "CNCC(O)c1ccc(-c2cc3c(NC(C)c4ccccc4F)c(Cl)cnc3cc2F)cc1", "note": "(single isomer, unassigned) [Example 600, 1-(4-(3-chloro-7-fluoro-4-((1-(2-fluorophenyl)ethyl)amino)quinolin-6-yl)phenyl)-2-(methylamino)ethan-1-ol]", "IC50": "< 1000"},
      {"smiles": "CC(Nc1c(Cl)cnc2ccc(-c3ccc(C(C)(C)O)cc3)cc12)c1ccn(C)n1", "note": "(racemic) [Example 200, 2-(4-(3-chloro-4-((1-(1-methyl-1H-pyrazol-3-yl)ethyl)amino)quinolin-6-yl)phenyl)propan-2-ol]", "IC50": "1000 to 10000"},
      {"smiles": "C[C@@H](Nc1c(Cl)cnc2ccc(-c3ccc(C(N)CO)cc3)cc12)c1ccccc1F", "note": "(stereo partly drawn) [Example 100, 2-amino-2-(4-(3-chloro-4-(((R)-1-(2-fluorophenyl)ethyl)amino)quinolin-6-yl)phenyl)ethan-1-ol]", "IC50": "1000 to 10000"},
      {"smiles": "COC(=O)[C@H](CNC(C)=O)N1CCN(c2ncc(-c3ccc4ncc(Cl)c(N[C@H](C)c5ccccc5F)c4c3)cn2)CC1", "note": "[Example 109, methyl (S)-3-acetamido-2-(4-(5-(3-chloro-4-(((R)-1-(2-fluorophenyl)ethyl)amino)quinolin-6-yl)pyrimidin-2-yl)piperazin-1-yl)propanoate]", "IC50": "1000 to 10000"},
      {"smiles": "C[C@@H](Nc1c(Cl)cnc2ccc(-c3ccc(N4CCO[C@@H](CO)C4)nc3)cc12)c1ccccc1F", "note": "[Example 83, ((R)-4-(5-(3-chloro-4-(((R)-1-(2-fluorophenyl)ethyl)amino)quinolin-6-yl)pyridin-2-yl)morpholin-2-yl)methanol]", "IC50": "< 1000"},
      {"smiles": "CC(Cc1ccc(OC(F)(F)F)cc1)Nc1c(Cl)cnc2ccc(-c3cnc(C(C)(C)O)nc3)cc12", "note": "(racemic) [Example 137, 2-(5-(3-chloro-4-((1-(4-(trifluoromethoxy)phenyl)propan-2-yl)amino)quinolin-6-yl)pyrimidin-2-yl)propan-2-ol]", "IC50": "1000 to 10000"},
      {"smiles": "C[C@@H](Nc1c(Cl)cnc2ccc(-c3cnc(C(C)(C)O)nc3)cc12)c1cc(-c2nnn(C)n2)ccc1F", "note": "[Example 413, (R)-2-(5-(3-chloro-4-((1-(2-fluoro-5-(2-methyl-2H-tetrazol-5-yl)phenyl)ethyl)amino)quinolin-6-yl)pyrimidin-2-yl)propan-2-ol]", "IC50": "< 1000"},
      {"smiles": "CC(Nc1c(Cl)cnc2ccc(-c3cnc(C(C)(C)O)nc3)cc12)c1cc(F)ccc1F", "note": "(racemic) [Example 160, 2-(5-(3-chloro-4-((1-(2,5-difluorophenyl)ethyl)amino)quinolin-6-yl)pyrimidin-2-yl)propan-2-ol]", "IC50": "< 1000"},
      {"smiles": "CC(Nc1c(Cl)cnc2cc(F)c(-c3cnc(N4CCC(C(C)(C)O)CC4)nc3)cc12)c1ccccc1F", "note": "(single isomer, unassigned) [Example 245, 2-(1-(5-(3-chloro-7-fluoro-4-((1-(2-fluorophenyl)ethyl)amino)quinolin-6-yl)pyrimidin-2-yl)piperidin-4-yl)propan-2-ol]", "IC50": "< 1000"},
      {"smiles": "COc1cc(-c2ccc(F)c([C@@H](C)Nc3c(Cl)cnc4ccccc34)c2)c(OC)nn1", "note": "[Example 513, (R)-3-chloro-N-(1-(5-(3,6-dimethoxypyridazin-4-yl)-2-fluorophenyl)ethyl)quinolin-4-amine]", "IC50": "1000 to 10000"},
      {"smiles": "COc1ccccc1-c1ccc(F)c([C@@H](C)Nc2c(Cl)cnc3ccccc23)c1", "note": "[Example 549, (R)-3-chloro-N-(1-(4-fluoro-2′-methoxy-[1,1′-biphenyl]-3-yl)ethyl)quinolin-4-amine]", "IC50": "1000 to 10000"},
      {"smiles": "C[C@@H](Nc1c(Cl)cnc2ccc(-c3cnc(C4(O)COC4)nc3)cc12)c1ccccc1F", "note": "[Example 227, (R)-3-(5-(3-chloro-4-((1-(2-fluorophenyl)ethyl)amino)quinolin-6-yl)pyrimidin-2-yl)oxetan-3-ol]", "IC50": "< 1000"},
      {"smiles": "Cc1nc2cc(F)c(-c3cnc(N4CCNC(=O)C4)nc3)cc2c(N[C@H](C)c2cc(Br)ccc2F)c1Cl", "note": "[Example 560, (R)-4-(5-(4-((1-(5-bromo-2-fluorophenyl)ethyl)amino)-3-chloro-7-fluoro-2-methylquinolin-6-yl)pyrimidin-2-yl)piperazin-2-one]", "IC50": "1000 to 10000"},
      {"smiles": "CC(Nc1c(Cl)cnc2c(Cl)cc(-c3cnn(C)c3)cc12)c1ccccc1F", "note": "(racemic) [Example 20, 3,8-dichloro-N-(1-(2-fluorophenyl)ethyl)-6-(1-methyl-1H-pyrazol-4-yl)quinolin-4-amine]", "IC50": "10000 to 25000"},
      {"smiles": "CC(C)(O)c1ncc(-c2nc3c(NC(c4ccccc4)C(F)F)c(Cl)cnc3cc2F)cn1", "note": "(racemic) [Example 212, 2-(5-(7-chloro-8-((2,2-difluoro-1-phenylethyl)amino)-3-fluoro-1,5-naphthyridin-2-yl)pyrimidin-2-yl)propan-2-ol]", "IC50": "< 1000"},
      {"smiles": "CC(Nc1c(Cl)cnc2cc(F)c(-c3ccc(C(O)CO)cc3)cc12)c1cc(C(N)=O)ccc1F", "note": "(single isomer, unassigned) [Example 601, 3-(1-((3-chloro-6-(4-(1,2-dihydroxyethyl)phenyl)-7-fluoroquinolin-4-yl)amino)ethyl)-4-fluorobenzamide]", "IC50": "< 1000"},
      {"smiles": "COc1ncc(-c2ccc(F)c([C@@H](C)Nc3c(Cl)cnc4ccccc34)c2)cc1C#N", "note": "[Example 520, (R)-5-(3-(1-((3-chloroquinolin-4-yl)amino)ethyl)-4-fluorophenyl)-2-methoxynicotinonitrile]", "IC50": "< 1000"},
      {"smiles": "C[C@@H](Nc1c(Cl)cnc2ccccc12)c1cc(-c2ccccc2C#N)ccc1F", "note": "[Example 552, (R)-3′-(1-((3-chloroquinolin-4-yl)amino)ethyl)-4′-fluoro-[1,1′-biphenyl]-2-carbonitrile]", "IC50": "< 1000"},
      {"smiles": "Cc1nc2ccc(-c3cnc(C(C)(C)O)nc3)cc2c(N[C@H](C)c2cc(C#N)ccc2F)c1C", "note": "[Example 314, (R)-4-fluoro-3-(1-((6-(2-(2-hydroxypropan-2-yl)pyrimidin-5-yl)-2,3-dimethylquinolin-4-yl)amino)ethyl)benzonitrile]", "IC50": "< 1000"},
      {"smiles": "C[C@@H](Nc1c(Cl)cnc2ccccc12)c1cc(-c2cc3ccccc3[nH]2)ccc1F", "note": "[Example 528, (R)-3-chloro-N-(1-(2-fluoro-5-(1H-indol-2-yl)phenyl)ethyl)quinolin-4-amine]", "IC50": "1000 to 10000"},
      {"smiles": "CC(Nc1c(Cl)cnc2cc(F)c(-c3cnc(C(O)CN4CCOCC4)cn3)cc12)c1ccccc1F", "note": "(centres unmarked) [Example 275, 1-(5-(3-chloro-7-fluoro-4-((1-(2-fluorophenyl)ethyl)amino)quinolin-6-yl)pyrazin-2-yl)-2-morpholinoethan-1-ol]", "IC50": "< 1000"},
      {"smiles": "C[C@@H](Nc1c(Cl)c(C(=O)Nc2cccnc2)nc2ccc(-c3cnc(C(C)(C)O)nc3)cc12)c1cc(C#N)ccc1F", "note": "[Example 385, (R)-3-chloro-4-((1-(5-cyano-2-fluorophenyl)ethyl)amino)-6-(2-(2-hydroxypropan-2-yl)pyrimidin-5-yl)-N-(pyridin-3-yl)quinoline-2-carboxamide]", "IC50": "1000 to 10000"},
      {"smiles": "CC(=O)NC[C@@H](C(=O)O)N1CCN(c2ncc(-c3ccc4ncc(Cl)c(N[C@H](C)c5ccccc5F)c4c3)cn2)CC1", "note": "[Example 95, (S)-3-acetamido-2-(4-(5-(3-chloro-4-(((R)-1-(2-fluorophenyl)ethyl)amino)quinolin-6-yl)pyrimidin-2-yl)piperazin-1-yl)propanoic acid]", "IC50": "1000 to 10000"},
      {"smiles": "CCC(Nc1c(Cl)cnc2ccc(-c3cnc(C(C)(C)O)nc3)cc12)c1nc(Br)ccc1F", "note": "(racemic) [Example 64, 2-(5-(4-((1-(6-bromo-3-fluoropyridin-2-yl)propyl)amino)-3-chloroquinolin-6-yl)pyrimidin-2-yl)propan-2-ol]", "IC50": "< 1000"},
      {"smiles": "CC(Nc1c(Cl)cnc2ccc(-c3ccc(C(C)(C)O)cc3)cc12)c1ccco1", "note": "(racemic) [Example 192, 2-(4-(3-chloro-4-((1-(furan-2-yl)ethyl)amino)quinolin-6-yl)phenyl)propan-2-ol]", "IC50": "< 1000"},
      {"smiles": "CC(Nc1c(Cl)cnc2cc(F)c(-c3cc(F)c(C(C)(C)O)c(F)c3)cc12)c1ccccc1F", "note": "(centres unmarked) [Example 268, 2-(4-(3-chloro-7-fluoro-4-((1-(2-fluorophenyl)ethyl)amino)quinolin-6-yl)-2,6-difluorophenyl) propan-2-ol]", "IC50": "< 1000"},
      {"smiles": "CC(C)(O)c1ncc(-c2nc3c(N[C@H](c4cc(C(O)CO)ccc4F)C(F)F)c(Cl)cnc3cc2F)cn1", "note": "(stereo partly drawn) [Example 488, 1-(3-((R)-1-((3-chloro-7-fluoro-6-(2-(2-hydroxypropan-2-yl)pyrimidin-5-yl)-1,5-naphthyridin-4-yl)amino)-2,2-difluoroethyl)-4-fluorophenyl)ethane-1,2-diol]", "IC50": "< 1000"},
      {"smiles": "Cc1nc2cc(F)c(-c3cnc(C(C)(C)O)nc3)nc2c(N[C@@H](c2cc(C(O)CO)ccc2F)C(F)F)c1Cl", "note": "(stereo partly drawn) [Example 491, 1-(3-((S)-1-((3-chloro-7-fluoro-6-(2-(2-hydroxypropan-2-yl)pyrimidin-5-yl)-2-methyl-1,5-naphthyridin-4-yl)amino)-2,2-difluoroethyl)-4-fluorophenyl)ethane-1,2-diol]", "IC50": "< 1000"}
    ]}
  ]
}
